Results as given in patent publication US20240376091A1, “THIADIAZOLEAMIDE DERIVATIVES AND THEIR APPLICATIONS” (ZHEJIANG UNIVERSITY, priority 2021, published 2024).

Target: T1, AR (Homo sapiens, UniProt P10275, T878A)
T1 construct: into the androgen-dependent PCa cells (LNCaP); endogenous in cells; host or cells: LNCaP-ARR2PB-eGFP
T1 sequence (P10275 1-920 T878A): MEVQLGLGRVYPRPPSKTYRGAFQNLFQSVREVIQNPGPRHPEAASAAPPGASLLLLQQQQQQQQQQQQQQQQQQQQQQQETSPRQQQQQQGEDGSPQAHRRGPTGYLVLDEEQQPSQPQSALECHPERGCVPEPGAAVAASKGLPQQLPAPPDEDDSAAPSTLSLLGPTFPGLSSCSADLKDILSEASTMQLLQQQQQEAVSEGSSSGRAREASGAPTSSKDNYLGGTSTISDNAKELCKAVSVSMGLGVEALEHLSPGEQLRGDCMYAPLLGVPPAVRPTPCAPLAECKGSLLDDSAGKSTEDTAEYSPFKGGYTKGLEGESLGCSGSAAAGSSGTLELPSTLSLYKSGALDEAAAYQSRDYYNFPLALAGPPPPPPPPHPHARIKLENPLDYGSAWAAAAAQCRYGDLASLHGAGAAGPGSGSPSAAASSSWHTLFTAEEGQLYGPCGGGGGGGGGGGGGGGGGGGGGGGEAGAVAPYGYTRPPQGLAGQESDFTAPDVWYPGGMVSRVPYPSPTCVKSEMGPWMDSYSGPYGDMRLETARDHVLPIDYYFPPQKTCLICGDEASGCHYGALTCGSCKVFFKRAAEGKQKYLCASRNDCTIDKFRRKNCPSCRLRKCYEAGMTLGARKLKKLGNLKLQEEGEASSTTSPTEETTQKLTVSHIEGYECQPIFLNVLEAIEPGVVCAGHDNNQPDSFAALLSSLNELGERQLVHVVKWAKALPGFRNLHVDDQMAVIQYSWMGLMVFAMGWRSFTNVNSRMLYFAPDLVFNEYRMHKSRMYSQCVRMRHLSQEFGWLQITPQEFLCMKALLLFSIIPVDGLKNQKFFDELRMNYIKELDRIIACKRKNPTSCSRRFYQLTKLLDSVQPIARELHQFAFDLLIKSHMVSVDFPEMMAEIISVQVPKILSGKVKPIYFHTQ
Assay: AR transcriptional activity, LNCaP-ARR2PB-eGFP reporter cells
Format: cell-based
Conditions: read-out: IC50 AR transcriptional activities
Text: Detection principles: We conducted a stable transfection of promoter ARR2PB known for its strong AR responsiveness, into the androgen-dependent PCa cells (LNCaP). The expression of enhanced green fluorescent protein (eGFP) is depending on the degree of activation of AR. Therefore, LNCaP-ARR2PB-eGFP cell line could quantitatively determine the AR antagonistic activities of the compounds by evaluating the expression of eGFP.

Structure (SMILES)	IC50 [µM]
Cc1oc(-c2cccc(C(F)(F)F)c2)cc1C(=O)Nc1nc(CN2CCCC2)ns1 [Compound A-108, 2-Methyl-N-(3-(pyrrolidin-1-ylmethyl)-1,2,4-thiadiazol-5-yl)-5-(3-(trifluoromethyl)phenyl)furan-3-carboxamide]	0.84
CC(O)(Cc1nsc(NC(=O)c2coc(-c3cccc(C(F)(F)F)c3)c2)n1)C(F)(F)F (stereo not shown) [Compound B-25, N-(3-(3,3,3-trifluoro-2-hydroxy-2-methylpropyl)-1,2,4-thiadiazol-5-yl)-5-(3-(trifluoro-methyl)phenyl)furan-3-carboxamide]	15.5
[2H]c1c(-c2cccc(OC(F)F)c2)oc(C)c1C(=O)Nc1nc(CC(C)=O)ns1 [Compound A-37, 5-(3-(Difluoromethoxy)phenyl)-2-methyl-N-(3-(2-oxopropyl)-1,2,4-thiadiazol-5-yl)furan-4-d-3-carboxamide]	0.03
Cc1oc(-c2cccc(C(F)(F)F)c2)cc1C(=O)Nc1nc(CC(C)N)ns1 (stereo not shown) [Compound A-66, N-(3-(2-aminopropyl)-1,2,4-thiadiazol-5-yl)-2-methyl-5-(3-(trifluoromethyl)phenyl)furan-3-carboxamide]	1.39
Cc1oc(-c2cccc(OC(F)F)c2)cc1C(=O)Nc1nc(CN2CCOCC2)ns1 [Compound A-130, 5-(3-(Difluoromethoxy)phenyl)-2-methyl-N-(3-(morpholinomethyl)-1,2,4-thiadiazol-5-yl)furan-3-carboxamide]	0.67
COc1cccc(-c2cc(C(=O)Nc3nc(CC(C)N4CCCCC4)ns3)co2)c1 (stereo not shown) [Compound B-14, 5-(3-Methoxyphenyl)-N-(3-(2-(piperidin-1-yl)propyl)-1,2,4-thiadiazol-5-yl)furan-3-carboxamide]	33.6
COc1cccc(-c2cc(C(=O)Nc3nc(CN(C)C)ns3)c(C)o2)c1 [Compound A-118, N-(3-((dimethylamino)methyl)-1,2,4-thiadiazol-5-yl)-5-(3-methoxyphenyl)-2-methylfuran-3-carboxamide]	2.23
CC(Cc1nsc(NC(=O)c2coc(-c3cccc(C#N)c3)c2)n1)N1CCCC1 (stereo not shown) [Compound B-12, 5-(3-Cyanophenyl)-N-(3-(2-(pyrrolidin-1-yl)propyl)-1,2,4-thiadiazol-5-yl)furan-3-carboxamide]	23.3
COc1cccc(-c2cc(C(=O)Nc3nc(CC(C)=O)ns3)co2)c1 [Compound B-3, 5-(3-Methoxyphenyl)-N-(3-(2-oxopropyl)-1,2,4-thiadiazol-5-yl)furan-3-carboxamide]	12.6
CC(=O)Cc1nsc(NC(=O)c2cc(-c3ccccc3)oc2C)n1 [Compound A-5, 2-Methyl-N-(3-(2-oxopropyl)-1,2,4-thiadiazol-5-yl)-5-phenylfuran-3-carboxamide]	0.95
CC(=O)Cc1nsc(NC(=O)c2cc(-c3ccc4ccccc4c3)oc2C)n1 [Compound A-12, 2-Methyl-5-(naphthalen-2-yl)-N-(3-(2-oxopropyl)-1,2,4-thiadiazol-5-yl)furan-3-carboxamide]	3.17
Cc1oc(-c2cccc(OC(F)F)c2)cc1C(=O)Nc1nc(CN2CCCCC2)ns1 [Compound A-129, 5-(3-(Difluoromethoxy)phenyl)-2-methyl-N-(3-(piperidin-1-ylmethyl)-1,2,4-thiadiazol-5-yl)furan-3-carboxamide]	0.06
CC(=O)Cc1nsc(NC(=O)c2cc(-c3cccc(C(=O)O)c3)oc2C)n1 [Compound A-29, 3-(5-Methyl-4-((3-(2-oxopropyl)-1,2,4-thiadiazol-5-yl)carbamoyl)furan-2-yl)benzoic acid]	0.94
CC(=O)Cc1nsc(NC(=O)c2cc(-c3cccc(Cl)c3)oc2C)n1 [Compound A-8, 5-(3-Chlorophenyl)-2-methyl-N-(3-(2-oxopropyl)-1,2,4-thiadiazol-5-yl)furan-3-carboxamide]	1.71
CC(=O)Cc1nsc(NC(=O)c2coc(-c3cccc(C(F)(F)F)c3)c2)n1 [Compound B-1, N-(3-(2-oxopropyl)-1,2,4-thiadiazol-5-yl)-5-(3-(trifluoromethyl)phenyl)furan-3-carboxamide]	18.6

Further lines, results first:

IC50 [µM]	Structure (SMILES)
4.52	Cc1sc(-c2cccc(C(F)(F)F)c2)cc1C(=O)Nc1nc(CC(C)O)ns1 (stereo not shown) [Compound C-20, N-(3-(2-hydroxypropyl)-1,2,4-thiadiazol-5-yl)-2-methyl-5-(3-(trifluoromethyl)phenyl)thiophene-3-carboxamide]
25.3	CN(C)Cc1nsc(NC(=O)c2csc(-c3cccc(C#N)c3)c2)n1 [Compound D-47, 5-(3-Cyanophenyl)-N-(3-((dimethylamino)methyl)-1,2,4-thiadiazol-5-yl)thiophene-3-carboxamide]
32.7	CC(=O)Cc1nsc(NC(=O)c2cc(-c3cccc(OC(F)F)c3)co2)n1 [Compound G-5, 4-(3-(Difluoromethoxy)phenyl)-N-(3-(2-oxopropyl)-1,2,4-thiadiazol-5-yl)furan-2-carboxamide]
34.3	CC(=O)Cc1nsc(NC(=O)c2cc(-c3cccc(C#N)c3)c(C)o2)n1 [Compound F-2, 4-(3-Cyanophenyl)-5-methyl-N-(3-(2-oxopropyl)-1,2,4-thiadiazol-5-yl)furan-2-carboxamide]
2.92	O=C(Nc1nc(CN2CCCC2)ns1)c1cc(-c2cccc(OC(F)(F)F)c2)oc1C(F)(F)F [Compound E-40, N-(3-(pyrrolidin-1-ylmethyl)-1,2,4-thiadiazol-5-yl)-5-(3-(trifluoromethoxy)phenyl)-2-(trifluoromethyl)furan-3-carboxamide]
22	CC(O)(Cc1nsc(NC(=O)c2cc(-c3cccc(C#N)c3)co2)n1)C(F)(F)F (stereo not shown) [Compound G-13, 4-(3-Cyanophenyl)-N-(3-(3,3,3-trifluoro-2-hydroxy-2-methylpropyl)-1,2,4-thiadiazol-5-yl) furan-2-carboxamide]
5.77	Cc1sc(-c2cccc(C#N)c2)cc1C(=O)Nc1nc(CC(C)N2CCCCC2)ns1 (stereo not shown) [Compound C-12, 5-(3-Cyanophenyl)-2-methyl-N-(3-(2-(piperidin-1-yl)propyl)-1,2,4-thiadiazol-5-yl)thiophene-3-carboxamide]
13.6	COc1cccc(-c2cc(C(=O)Nc3nc(CC(C)=O)ns3)cs2)c1 [Compound D-3, 5-(3-Methoxyphenyl)-N-(3-(2-oxopropyl)-1,2,4-thiadiazol-5-yl)thiophene-3-carboxamide]
26.2	CN1CCN(Cc2nsc(NC(=O)c3cc(-c4cccc(OC(F)(F)F)c4)co3)n2)CC1 [Compound G-27]
18.1	CC(O)Cc1nsc(NC(=O)c2csc(-c3cccc(C(F)(F)F)c3)c2)n1 [Compound D-20, N-(3-(2-hydroxypropyl)-1,2,4-thiadiazol-5-yl)-5-(3-(trifluoromethyl)phenyl)thiophene-3-carboxamide]
15.6	Cc1oc(C(=O)Nc2nc(CN3CCOCC3)ns2)cc1-c1cccc(OC(F)(F)F)c1 [Compound F-27, 5-Methyl-N-(3-(morpholinomethyl)-1,2,4-thiadiazol-5-yl)-4-(3-(trifluoromethoxy)phenyl)furan-2-carboxamide]
35.5	CC(=O)Cc1nsc(NC(=O)c2cc(-c3cccc(C#N)c3)co2)n1 [Compound G-2, 4-(3-Cyanophenyl)-N-(3-(2-oxopropyl)-1,2,4-thiadiazol-5-yl)furan-2-carboxamide]
6.17	Cc1sc(-c2cccc(OC(F)(F)F)c2)cc1C(=O)Nc1nc(CC(C)N2CCOCC2)ns1 (stereo not shown) [Compound C-17, 2-Methyl-N-(3-(2-morpholinopropyl)-1,2,4-thiadiazol-5-yl)-5-(3-(trifluoromethoxy)phenyl)thiophene-3-carboxamide]
31.9	COc1cccc(-c2cc(C(=O)Nc3nc(CN4CCOCC4)ns3)oc2C)c1 [Compound F-26, 4-(3-Methoxyphenyl)-5-methyl-N-(3-(morpholinomethyl)-1,2,4-thiadiazol-5-yl)furan-2-carboxamide]
41.5	CC(=O)Cc1nsc(NC(=O)c2csc(-c3cccc(OC(F)(F)F)c3)c2)n1 [Compound D-4, N-(3-(2-oxopropyl)-1,2,4-thiadiazol-5-yl)-5-(3-(trifluoromethoxy)phenyl)thiophene-3-carboxamide]
35.9	COc1cccc(-c2cc(C(=O)Nc3nc(CC(C)=C(F)F)ns3)oc2C)c1 [Compound F-15, N-(3-(3,3-difluoro-2-methylallyl)-1,2,4-thiadiazol-5-yl)-4-(3-methoxyphenyl)-5-methyl-furan-2-carboxamide]
